Experimental data from article PMC6270570, “New Flurbiprofen Derivatives: Synthesis, Membrane Affinity and Evaluation of in Vitro Effect on β-Amyloid Levels” (Molecules, 2013).
Read-outs that look alike come from different tables or passages of the source. Marks after values point to notes of the source that are not given here.

How the values were obtained:
[1] = IAM-HPLC affinity for membrane phospholipids (logKIAM/W); assay type: physicochemical; details: IAM.PC.MG column, pH 7.0 phosphate buffer/acetonitrile, extrapolated to 100% aqueous eluent
Protocol: n-Octanol/water partition coefficients were theoretically calculated by the program clogP for windows version 2.0 (Biobyte Corp., Claremont, CA, USA). Affinity for membrane phospholipids, so called “phospholipophilicity”, was measured by HPLC on a phospholipid stationary phase. […] liquid chromatograph (Waters-Millipore, Milford, MA, USA), equipped with a 7125 Rheodyne injection valve and a 486 UV detector (Waters) set at 246 nm, was used. The column was an IAM.PC.MG (Immobilized Artificial Membrane-PhosphatidylCholine-MethylGlycolate) (4.6 mm × 150 mm) (Regis Chemical Company, Morton Grove, IL, USA). The mobile phase was 0.01 M phosphate buffer at pH 7.0 and acetonitrile at percentages ranging from 10 to 35 percent (v/v) (from 1.0 to 4.0 mL/min). The chromatography was carried out at room temperature. All samples were dissolved in methanol (ca. 10^-3 M) and 20 μL samples were injected in the chromatograph. Chromatographic retention data are expressed as the logarithm of the capacity factor, log k, defined as: log k = log [(tr - t0)/t0] (1) where tr and t0 are the retention times of the drug and a non-retained compound (citric acid), respectively. The log k values relative to 100% aqueous eluent (logKIAM/W) were calculated by performing a polycratic method of extrapolation. Each compound was eluted with at least three different mobile phases containing acetonitrile in different percentages (φ). […] All values of log k reported are the average of at least three measurements; the 95% confidence interval never exceeded 0.04 for each log k value. Possible occurrence of retention changes due to column aging was monitored by checking the retention times of five test compounds (amlodipine, p-nitroaniline, toluene, isradipine, and ketoprofen).

[2] = RP-HPLC retention factor extrapolated to 100% water (KC18/W); assay type: physicochemical; details: for KC18/W (retention factor extrapolated to 100% water): RP-HPLC, acetonitrile/water mixtures; for chromatographic logP: by comparison with KC18/W and logP of nisoldipine and lacidipine, read-out: logP calculated from KC18/W
Protocol: Similarly, due to their high lipophilicity, experimental n-octanol/water lipophilicity values of enantiomers 8/9 were determined by RP-HPLC because their characterization through the “classical” shake-flask method was expected to be difficult and scarcely reproducible. The retention factor, determined in acetonitrile/water mixtures and extrapolated to 100% water (KC18/W) for enantiomers 8/9 was 3.94 (data not shown).

[3] = set-up: method as in doi:10.1016/0223-5234(96)80368-0; details: n-octanol/water; cited from earlier work
[4] = PAMPA-BBB permeability (porcine polar brain lipid extract); assay type: in vitro ADME; details: PAMPA; pH 7.4, 18 h of incubation; read-out: PAMPA-BBB Pe
Protocol: (§1) The following protocol was applied to measure the Pe through the artificial membrane to predict oral absorption and BBB permeation. In order to study the g.i. permeability, a 2% solution (w/v) of egg lecithin (phosphatidyl choline > 98%, PC) in dodecane was employed as an artificial membrane solution. The effective permeability of BBB was measured using phospholipid mixture from porcine polar brain lipid extract, composed by PC 12.6%, phosphatidylethanolamine (PE) 33.1%, phosphatidylserine (PS) 18.5%, phosphatidylinositol (PI) 4.1%, phospatidic acid (PA) 0.8% and 30.9% of other compounds (purchased from Avantis Polar Lipids, Alabaster, AL, USA). Each donor filtration plate well was then impregnated with 5 µL of this solution carefully, and immediately after 150 µL of phosphate buffer (pH 7.4/pH 6.5), containing co-drug 1 500 µM and iPrOH 20% as co-solvent was added. Then the drug-filled donor plate was placed into the acceptor plate that had been prefilled with the same buffer (300 µL) as acceptor solution. After plate lid was replaced, the resulting assembled donor-acceptor plates were incubated at r.t. for 2 h for PAMPA-GI and 18 h for PAMPA-BBB, following which drugs concentration in the acceptor and donor solutions were determined by HPLC [37].
(§2) Log Pe can be calculated from the equation below: [drawing 10] (2) where Pe is the effective permeability coefficient (cm x s^−1), VD is volume of donor compartment (0.15 cm^3) and VA is volume of acceptor compartment (0.30 cm^3), A is effective filter area (0.28 cm^2), t is incubation time for the assay (s), Cacceptor is the concentration of the compound in the acceptor compartment at the completion of the assay, and Cequilibrium is the concentration of compound at theoretical equilibrium.

[5] = PAMPA-GI permeability (egg lecithin in dodecane); assay type: in vitro ADME; details: read-out: PAMPA-GI Pe
Protocol: as §1, §2

APP = details: 24 h
Protocol: For detection of cell viability, a Trypan blue dye exclusion test has been performed [33].
Cell lysates (20 µg) have been electrophoresed and transferred to nitrocellulose membrane. […] Immunoreactive bands have been detected by ECL detection system (Amersham Intl., Buckinghamshire, UK) and analysed by densitometry. Densitometric values, expressed as Integrated Optical Intensity (I.O.I.), have been estimated in a CHEMIDOC XRS system by the QuantiOne 1-D analysis software (BioRad, Richmond, CA, USA). Values obtained have been normalized basing on densitometric values of internal β tubulin. Statistical analysis has been performed using the analysis of variance (ANOVA). Results have been expressed as mean ± SD. Values of p < 0.05 have been considered statistically significant.

Aβ-42 = test: Western blotting of Aβ-42 expression in CTXTNA2 astrocytes (in vitro γ-secretase activity); assay type: cell-based, rat; details: 24 h
Protocol: CTXTNA2 cell line, established from primary cultures of type 1 astrocytes from brain frontal cortex tissue of 1 day old rats, was obtained by ECACC (Salisbury, UK). Cells have been maintained in DMEM, 10% FBS at 37 °C, 5% CO2 until sub-confluence and incubated for 24 h with a DMSO solution of drug (concentrations ranging from 1 µM to 100 µM). For detection of cell viability, a Trypan blue dye exclusion test has been performed.
Cell lysates (20 µg) have been electrophoresed and transferred to nitrocellulose membrane. Nitrocellulose membranes, blocked in 5% non-fat milk, 10 mmol/L Tris pH 7.5, 100 mmol/L NaCl, 0.1% Tween-20, have been probed with mouse APP (Millipore, Billerica, MA, USA) and Aβ (Alpha Diagnostic Intl, San Antonio, TX, USA) monoclonal antibodies (Santa Cruz Biotechnology, Santa Cruz, CA, USA), then incubated in the presence of specific enzyme conjugated IgG horseradish peroxidase. Immunoreactive bands have been detected by ECL detection system (Amersham Intl., Buckinghamshire, UK) and analysed by densitometry. Densitometric values, expressed as Integrated Optical Intensity (I.O.I.), have been estimated in a CHEMIDOC XRS system by the QuantiOne 1-D analysis software (BioRad, Richmond, CA, USA). Values obtained have been normalized basing on densitometric values of internal β tubulin. Statistical analysis has been performed using the analysis of variance (ANOVA). Results have been expressed as mean ± SD. Values of p < 0.05 have been considered statistically significant.

Compound	LogKIAM/W [1]	KC18/W (retention factor extrapolated to 100% water) [2]	logP (experimentally determined values) [3]	Papp at 18 h, 500 µM [4] [×10⁻⁶ cm/s]	melting point [°C]	Papp at 2 h, 500 µM ([5]; pH 6.5, 2 h of incubation) [×10⁻⁶ cm/s]	Papp at 2 h, 500 µM ([5]; pH 7.4, 2 h of incubation) [×10⁻⁶ cm/s]	Expression of APP (APP; 1 µM)	Expression of APP (APP; 10 µM)	Expression of APP (APP; 100 µM)	Expression of Aβ-42 (Aβ-42; 1 µM)	Expression of Aβ-42 (Aβ-42; 10 µM)	Expression of Aβ-42 (Aβ-42; 100 µM)	chromatographic logP [2]	Aβ-42 production, effect in words (Aβ-42; 1 µM to 100 µM, without affecting the APP level)
COC(=O)C1=C(C)NC(C)=C(C(=O)OCC(C)C)C1c1ccccc1[N+](=O)[O-] (stereo not shown) [Nisoldipine, reference compound]	2.63	2.99	4.53 ^a	–	–	–	–	–	–	–	–	–	–	–	–
C[C@H](NC(=O)[C@H](C)c1ccc(-c2ccccc2)c(F)c1)C(=O)N[C@H](C(=O)OC(C)(C)C)c1ccccc1 [Compound 1, tert-Butyl (2S)-({N-[(2R)-2-(2-fluoro-1,1'-biphenyl-4-yl)propanoyl]-L-alanyl}amino)(phenyl)acetate]	3.67	–	–	2.4	105 to 107	3.7	4.8	(93.1 ± 3.8) × 10^−2	(89.4 ± 3.2) × 10^−2	(120 ± 3.2) × 10^−2	(29.2 ± 1.2) × 10^−2	(43.5 ± 1.6) × 10^−2	(45.8. ± 1.3) × 10^−2	–	–
CN1C(=O)[C@@H](NC(=O)Cc2ccc(-c3ccccc3)c(F)c2)c2ccccc2-c2ccccc21 [Compound 9, 2-(2-Fluoro-1,1'-biphenyl-4-yl)-N-[(7S)-5-methyl-6-oxo-6,7-dihydro-5H-dibenzo[b,d]azepin-7-yl]-acetamide]	3.58	3.94	–	2.3	96 to 100	2.5	2.6	(68.7 ± 2.2) × 10^−2	(69.2 ± 1.4) × 10^−2	(94.3 ± 3.2) × 10^−2	(43.2 ± 2.1) × 10^−2	(38.4 ± 1.0) × 10^−2	(14.0 ± 0.5) × 10^−2	5.49	–
CCOC(=O)C1=C(C)NC(C)=C(C(=O)OCC)C1c1ccccc1/C=C/C(=O)OC(C)(C)C [Lacidipine, reference compound]	3.52	4.01	5.56 ^a	–	–	–	–	–	–	–	–	–	–	–	–
CN1C(=O)[C@H](NC(=O)Cc2ccc(-c3ccccc3)c(F)c2)c2ccccc2-c2ccccc21 [Compound 8, 2-(2-Fluoro-1,1'-biphenyl-4-yl)-N-[(7R)-5-methyl-6-oxo-6,7-dihydro-5H-dibenzo[b,d]azepin-7-yl]-acetamide]	3.58	3.94	–	2.3	96 to 100	2.5	2.6	(82.3 ± 3.2) × 10^−2	(68.1 ± 3.2) × 10^−2	(94.4 ± 4.2) × 10^−2	(31.1 ± 0.9) × 10^−2	(25.0 ± 1.0) × 10^−2	(35.2 ± 1.1) × 10^−2	5.49	–
C[C@H](NC(=O)[C@@H](C)c1ccc(-c2ccccc2)c(F)c1)C(=O)N[C@H](C(=O)OC(C)(C)C)c1ccccc1 [Compound 2, tert-Butyl(2S)-({N-[(2S)-2-(2-fluoro-1,1'-biphenyl-4-yl)propanoyl]-L-alanyl}amino)(phenyl)acetate]	3.80	–	–	2.1	106 to 108	3.6	4.1	(93.1 ± 2.6) × 10^−2	(93.3 ± 3.5) × 10^−2	(63.6 ± 2.8) × 10^−2	(20.0 ± 1.1) × 10^−2	(12.1 ± 0.6) × 10^−2	(8.4 ± 0.2) × 10^−2	–	highly effective
